Assay results reported in ChEMBL document CHEMBL4507258 (2021).

Columns and labels:
[1] = target: D(1A) dopamine receptor (Homo sapiens) (UniProt P21728); settings: Compound concentration 10.0 uM
[2] = target: Serine/threonine-protein kinase SIK1 (Homo sapiens, UniProt P57059); settings: Compound concentration 1000.0 nM
[3] = test system: Hepatocyte growth factor receptor (Homo sapiens), P08581 [Y1235D]; settings: Compound concentration 1000.0 nM
[4] = target: Protein kinase C theta type (Homo sapiens) (UniProt Q04759); settings: Compound concentration 1000.0 nM
[5] = target: Calcium-dependent protein kinase 1 (Plasmodium falciparum) (UniProt P62344); settings: Compound concentration 1000.0 nM
[6] = target: Serine/threonine-protein kinase TAO3 (Homo sapiens) (UniProt Q9H2K8); settings: Compound concentration 1000.0 nM
[7] = target: Alpha-1A adrenergic receptor (Homo sapiens) (UniProt P35348); settings: Compound concentration 10.0 uM
[8] = test system: Mast/stem cell growth factor receptor Kit (Homo sapiens), P10721 [D816V]; settings: Compound concentration 1000.0 nM
[9] = target: Serine/threonine-protein kinase BRSK1 (Homo sapiens) (UniProt Q8TDC3); settings: Compound concentration 1000.0 nM
[10] = target: Serine/threonine-protein kinase STK11 (Homo sapiens) (UniProt Q15831); settings: Compound concentration 1000.0 nM
[11] = target: BMP-2-inducible protein kinase (Homo sapiens) (UniProt Q9NSY1); settings: Compound concentration 1000.0 nM
[12] = target: Serine/threonine-protein kinase 35 (Homo sapiens) (UniProt Q8TDR2); settings: Compound concentration 1000.0 nM
[13] = target: Inhibitor of nuclear factor kappa-B kinase subunit epsilon (Homo sapiens) (UniProt Q14164); settings: Compound concentration 1000.0 nM
[14] = target: Serine/threonine-protein kinase TNNI3K (Homo sapiens) (UniProt Q59H18); settings: Compound concentration 1000.0 nM
[15] = target: Proto-oncogene tyrosine-protein kinase Src (Homo sapiens) (UniProt P12931); settings: Compound concentration 1000.0 nM
[16] = target: T1, D(4) dopamine receptor (Homo sapiens) (UniProt P21917); settings: Compound concentration 10.0 uM
T1 sequence (whole entry): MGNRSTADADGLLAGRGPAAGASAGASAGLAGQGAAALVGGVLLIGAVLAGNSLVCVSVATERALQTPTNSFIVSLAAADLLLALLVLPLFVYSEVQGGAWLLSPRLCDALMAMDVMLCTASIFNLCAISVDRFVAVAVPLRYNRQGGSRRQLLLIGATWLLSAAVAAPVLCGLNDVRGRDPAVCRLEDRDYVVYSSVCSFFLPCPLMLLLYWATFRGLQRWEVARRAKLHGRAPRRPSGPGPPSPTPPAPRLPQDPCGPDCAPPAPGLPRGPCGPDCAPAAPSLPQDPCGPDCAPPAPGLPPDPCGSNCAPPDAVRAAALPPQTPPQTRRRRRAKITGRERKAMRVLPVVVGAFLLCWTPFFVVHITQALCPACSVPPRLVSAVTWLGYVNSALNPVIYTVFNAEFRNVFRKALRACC

[17] = target: Phosphorylase b kinase regulatory subunit alpha, liver isoform (Homo sapiens) (UniProt P46019); settings: Compound concentration 1000.0 nM
[18] = target: SRSF protein kinase 2 (Homo sapiens) (UniProt P78362); settings: Compound concentration 1000.0 nM
[19] = target: ALK tyrosine kinase receptor (Homo sapiens) (UniProt Q9UM73); settings: Compound concentration 1000.0 nM
[20] = target: Serine/threonine-protein kinase 16 (Homo sapiens) (UniProt O75716); settings: Compound concentration 1000.0 nM
[21] = target: Serine/threonine-protein kinase 32B (Homo sapiens) (UniProt Q9NY57); settings: Compound concentration 1000.0 nM
[22] = target: Beta-3 adrenergic receptor (Homo sapiens) (UniProt P13945); settings: Compound concentration 10.0 uM
[23] = target: Myosin light chain kinase 2, skeletal/cardiac muscle (Homo sapiens) (UniProt Q9H1R3); settings: Compound concentration 1000.0 nM
[24] = target: Calcium/calmodulin-dependent protein kinase type II subunit alpha (Homo sapiens) (UniProt Q9UQM7); settings: Compound concentration 1000.0 nM
[25] = target: Serine/threonine-protein kinase MRCK beta (Homo sapiens) (UniProt Q9Y5S2); settings: Compound concentration 1000.0 nM
[26] = target: Cytoplasmic tyrosine-protein kinase BMX (Homo sapiens) (UniProt P51813); settings: Compound concentration 1000.0 nM
[27] = target: SNF-related serine/threonine-protein kinase (Homo sapiens) (UniProt Q9NRH2); settings: Compound concentration 1000.0 nM
[28] = target: LIM domain kinase 1 (Homo sapiens) (UniProt P53667); settings: Compound concentration 1000.0 nM
[29] = target: Serine/threonine-protein kinase D1 (Homo sapiens) (UniProt Q15139); settings: Compound concentration 1000.0 nM
[30] = target: Mitogen-activated protein kinase 7 (Homo sapiens) (UniProt Q13164); settings: Compound concentration 1000.0 nM
[31] = target: Cyclin-dependent kinase 4 (Homo sapiens) (UniProt P11802); settings: Compound concentration 1000.0 nM
[32] = target: Insulin receptor-related protein (Homo sapiens) (UniProt P14616); settings: Compound concentration 1000.0 nM
[33] = target: Serine/threonine-protein kinase NLK (Homo sapiens) (UniProt Q9UBE8); settings: Compound concentration 1000.0 nM
[34] = target: Calcium/calmodulin-dependent protein kinase type 1B (Homo sapiens, UniProt Q6P2M8); settings: Compound concentration 1000.0 nM
[35] = target: STE20-like serine/threonine-protein kinase (Homo sapiens) (UniProt Q9H2G2); settings: Compound concentration 1000.0 nM
[36] = target: Cyclin-dependent kinase 15 (Homo sapiens) (UniProt Q96Q40); settings: Compound concentration 1000.0 nM
[37] = target: Mitogen-activated protein kinase kinase kinase 10 (Homo sapiens) (UniProt Q02779); settings: Compound concentration 1000.0 nM
[38] = target: Serine/threonine-protein kinase PAK 4 (Homo sapiens) (UniProt O96013); settings: Compound concentration 1000.0 nM
[39] = target: Serine/threonine-protein kinase RIO2 (Homo sapiens) (UniProt Q9BVS4); settings: Compound concentration 1000.0 nM
[40] = target: Cyclin-dependent kinase 2 (Homo sapiens) (UniProt P24941); settings: Compound concentration 1000.0 nM

Chain of Phosphorylase b kinase regulatory subunit alpha, liver isoform (Homo sapiens) (P46019 whole entry, canonical isoform): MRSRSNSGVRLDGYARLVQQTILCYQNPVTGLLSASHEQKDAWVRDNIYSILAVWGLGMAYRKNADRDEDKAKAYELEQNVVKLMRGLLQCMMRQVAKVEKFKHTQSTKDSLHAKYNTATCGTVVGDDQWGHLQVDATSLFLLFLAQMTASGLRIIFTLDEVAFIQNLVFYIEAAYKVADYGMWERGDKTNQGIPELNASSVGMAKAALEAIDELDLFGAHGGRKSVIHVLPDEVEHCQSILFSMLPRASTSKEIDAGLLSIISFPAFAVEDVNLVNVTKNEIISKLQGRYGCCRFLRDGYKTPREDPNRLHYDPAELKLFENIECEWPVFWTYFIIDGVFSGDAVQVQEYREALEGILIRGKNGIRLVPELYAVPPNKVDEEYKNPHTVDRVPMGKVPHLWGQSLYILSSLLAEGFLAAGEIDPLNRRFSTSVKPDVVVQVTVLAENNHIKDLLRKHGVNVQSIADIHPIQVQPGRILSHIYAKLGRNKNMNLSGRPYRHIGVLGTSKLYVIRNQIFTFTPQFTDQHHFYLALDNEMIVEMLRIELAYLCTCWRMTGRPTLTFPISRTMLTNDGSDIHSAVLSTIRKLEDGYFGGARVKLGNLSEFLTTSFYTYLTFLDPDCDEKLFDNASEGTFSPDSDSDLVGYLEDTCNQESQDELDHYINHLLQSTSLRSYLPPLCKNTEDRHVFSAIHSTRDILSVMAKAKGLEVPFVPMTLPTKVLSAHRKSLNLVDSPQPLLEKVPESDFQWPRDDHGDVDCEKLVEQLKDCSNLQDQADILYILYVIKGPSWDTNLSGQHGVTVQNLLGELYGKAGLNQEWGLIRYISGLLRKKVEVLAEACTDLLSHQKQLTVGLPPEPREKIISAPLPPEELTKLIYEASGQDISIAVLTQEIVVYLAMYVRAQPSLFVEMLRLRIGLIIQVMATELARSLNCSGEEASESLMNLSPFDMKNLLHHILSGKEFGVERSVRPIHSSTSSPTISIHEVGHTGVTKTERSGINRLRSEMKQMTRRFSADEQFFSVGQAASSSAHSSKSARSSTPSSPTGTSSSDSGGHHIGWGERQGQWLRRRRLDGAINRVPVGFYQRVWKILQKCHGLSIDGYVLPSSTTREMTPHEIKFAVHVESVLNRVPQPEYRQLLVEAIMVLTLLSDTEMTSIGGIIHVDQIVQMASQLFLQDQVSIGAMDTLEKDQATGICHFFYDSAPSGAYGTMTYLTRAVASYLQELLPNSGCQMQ
Chain of Calcium/calmodulin-dependent protein kinase type II subunit alpha (Homo sapiens) (Q9UQM7 whole entry): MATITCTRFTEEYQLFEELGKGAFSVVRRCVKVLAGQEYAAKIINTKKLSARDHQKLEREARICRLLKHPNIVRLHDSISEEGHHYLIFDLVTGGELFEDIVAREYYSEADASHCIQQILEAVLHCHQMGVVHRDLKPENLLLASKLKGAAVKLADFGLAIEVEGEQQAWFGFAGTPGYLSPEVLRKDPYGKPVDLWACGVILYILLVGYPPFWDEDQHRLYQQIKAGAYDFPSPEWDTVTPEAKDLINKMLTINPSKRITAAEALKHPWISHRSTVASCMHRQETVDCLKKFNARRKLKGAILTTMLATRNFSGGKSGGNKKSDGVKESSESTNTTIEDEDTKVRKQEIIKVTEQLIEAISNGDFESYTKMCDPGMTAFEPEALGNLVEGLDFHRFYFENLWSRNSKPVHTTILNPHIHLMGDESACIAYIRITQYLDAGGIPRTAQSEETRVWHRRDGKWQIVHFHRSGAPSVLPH
Chain of ALK tyrosine kinase receptor (Homo sapiens) (Q9UM73 19-1620 limits assumed): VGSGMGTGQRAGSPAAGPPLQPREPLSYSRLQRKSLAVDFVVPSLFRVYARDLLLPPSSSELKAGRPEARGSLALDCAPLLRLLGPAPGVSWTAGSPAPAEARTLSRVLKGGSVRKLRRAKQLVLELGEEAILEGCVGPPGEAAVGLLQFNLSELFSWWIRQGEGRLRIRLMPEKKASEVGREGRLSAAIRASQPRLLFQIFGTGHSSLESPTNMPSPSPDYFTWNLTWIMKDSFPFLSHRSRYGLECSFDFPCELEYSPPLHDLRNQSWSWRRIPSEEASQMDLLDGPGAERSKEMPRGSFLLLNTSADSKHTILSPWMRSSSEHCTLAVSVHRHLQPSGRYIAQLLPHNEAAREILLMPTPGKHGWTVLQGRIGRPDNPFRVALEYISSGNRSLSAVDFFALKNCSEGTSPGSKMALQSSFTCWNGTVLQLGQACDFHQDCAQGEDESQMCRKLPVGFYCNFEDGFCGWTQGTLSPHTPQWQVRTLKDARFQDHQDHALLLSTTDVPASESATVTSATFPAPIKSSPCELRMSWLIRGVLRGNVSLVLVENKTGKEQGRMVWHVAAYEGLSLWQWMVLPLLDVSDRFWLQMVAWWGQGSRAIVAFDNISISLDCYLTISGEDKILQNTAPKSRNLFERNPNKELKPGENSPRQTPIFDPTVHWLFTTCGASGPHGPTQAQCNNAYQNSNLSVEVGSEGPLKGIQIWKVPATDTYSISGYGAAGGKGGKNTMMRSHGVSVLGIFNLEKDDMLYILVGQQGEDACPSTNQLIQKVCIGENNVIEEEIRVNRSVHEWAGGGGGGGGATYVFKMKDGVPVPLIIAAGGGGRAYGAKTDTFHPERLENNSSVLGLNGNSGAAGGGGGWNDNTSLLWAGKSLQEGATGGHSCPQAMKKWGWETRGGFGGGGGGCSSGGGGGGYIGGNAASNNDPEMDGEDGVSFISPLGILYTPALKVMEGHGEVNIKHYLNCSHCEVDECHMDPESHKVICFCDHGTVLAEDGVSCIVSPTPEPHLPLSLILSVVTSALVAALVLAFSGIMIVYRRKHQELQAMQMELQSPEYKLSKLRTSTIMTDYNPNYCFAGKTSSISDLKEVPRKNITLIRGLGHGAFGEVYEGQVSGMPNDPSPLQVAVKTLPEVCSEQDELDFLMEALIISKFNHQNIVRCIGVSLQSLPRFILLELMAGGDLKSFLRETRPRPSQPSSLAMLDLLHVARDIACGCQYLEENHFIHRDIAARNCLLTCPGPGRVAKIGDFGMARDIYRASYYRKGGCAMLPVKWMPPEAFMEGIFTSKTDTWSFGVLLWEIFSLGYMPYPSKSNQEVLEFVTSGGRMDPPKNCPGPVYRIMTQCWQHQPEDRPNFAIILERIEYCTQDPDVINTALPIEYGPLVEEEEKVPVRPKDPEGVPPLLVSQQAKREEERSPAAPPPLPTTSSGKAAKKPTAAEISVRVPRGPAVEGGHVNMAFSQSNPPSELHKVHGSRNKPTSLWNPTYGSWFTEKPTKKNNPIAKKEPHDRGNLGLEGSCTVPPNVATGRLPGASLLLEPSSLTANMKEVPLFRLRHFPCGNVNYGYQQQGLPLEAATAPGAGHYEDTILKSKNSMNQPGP
Chain of Inhibitor of nuclear factor kappa-B kinase subunit epsilon (Homo sapiens) (Q14164 whole entry): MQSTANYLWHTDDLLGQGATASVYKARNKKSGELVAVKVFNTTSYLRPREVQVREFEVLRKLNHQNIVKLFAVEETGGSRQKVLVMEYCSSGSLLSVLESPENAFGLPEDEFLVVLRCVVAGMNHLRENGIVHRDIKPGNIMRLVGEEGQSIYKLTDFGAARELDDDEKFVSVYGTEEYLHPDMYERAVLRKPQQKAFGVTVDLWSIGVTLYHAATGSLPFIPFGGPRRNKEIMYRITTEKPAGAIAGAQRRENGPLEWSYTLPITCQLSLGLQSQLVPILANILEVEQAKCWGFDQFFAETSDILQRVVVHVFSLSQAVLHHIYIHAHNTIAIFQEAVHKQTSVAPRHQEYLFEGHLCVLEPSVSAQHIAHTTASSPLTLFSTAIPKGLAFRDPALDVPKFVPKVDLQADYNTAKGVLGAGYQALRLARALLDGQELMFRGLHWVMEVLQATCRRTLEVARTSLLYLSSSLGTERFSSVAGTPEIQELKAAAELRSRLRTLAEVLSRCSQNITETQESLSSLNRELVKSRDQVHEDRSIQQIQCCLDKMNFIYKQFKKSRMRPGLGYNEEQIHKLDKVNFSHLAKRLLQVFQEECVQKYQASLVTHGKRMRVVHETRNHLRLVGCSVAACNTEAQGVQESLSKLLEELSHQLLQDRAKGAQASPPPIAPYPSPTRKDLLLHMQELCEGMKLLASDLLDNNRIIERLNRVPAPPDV
Chain of Serine/threonine-protein kinase 16 (Homo sapiens) (O75716 whole entry): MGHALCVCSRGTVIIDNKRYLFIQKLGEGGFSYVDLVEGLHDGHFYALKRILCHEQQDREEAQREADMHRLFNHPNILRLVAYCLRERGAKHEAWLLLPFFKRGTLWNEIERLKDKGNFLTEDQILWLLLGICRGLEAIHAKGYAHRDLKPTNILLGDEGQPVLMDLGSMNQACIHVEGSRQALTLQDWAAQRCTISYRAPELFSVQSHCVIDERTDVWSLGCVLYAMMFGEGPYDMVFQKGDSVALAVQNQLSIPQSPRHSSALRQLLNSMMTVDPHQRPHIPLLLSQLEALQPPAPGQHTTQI
Chain of Serine/threonine-protein kinase 35 (Homo sapiens) (Q8TDR2 whole entry): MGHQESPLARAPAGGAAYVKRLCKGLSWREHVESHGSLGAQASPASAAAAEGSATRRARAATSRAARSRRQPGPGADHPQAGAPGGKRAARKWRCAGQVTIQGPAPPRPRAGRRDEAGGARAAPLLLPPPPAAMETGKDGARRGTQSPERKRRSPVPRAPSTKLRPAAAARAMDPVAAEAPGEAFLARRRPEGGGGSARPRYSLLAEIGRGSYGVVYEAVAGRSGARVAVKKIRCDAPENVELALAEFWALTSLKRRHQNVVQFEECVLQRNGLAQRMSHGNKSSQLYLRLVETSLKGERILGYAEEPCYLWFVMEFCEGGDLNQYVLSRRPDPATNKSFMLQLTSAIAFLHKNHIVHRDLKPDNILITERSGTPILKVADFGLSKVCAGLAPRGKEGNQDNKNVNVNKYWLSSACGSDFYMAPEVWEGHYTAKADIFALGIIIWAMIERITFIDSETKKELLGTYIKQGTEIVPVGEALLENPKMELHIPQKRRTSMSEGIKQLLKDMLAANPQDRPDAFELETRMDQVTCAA

Row | SMILES | inhibition [1] | residual activity [2] | residual activity [3] | residual activity [4] | residual activity [5] | residual activity [6] | inhibition [7] | residual activity [8] | residual activity [9] | residual activity [10] | residual activity [11] | residual activity [12] | residual activity [13] | residual activity [14] | residual activity [15] | inhibition [16] | residual activity [17] | residual activity [18] | residual activity [19] | residual activity [20] | other results
1 | CCCCN(CCCC)C(=O)CN1C[C@@H](c2cc(OC)c3c(c2)OCO3)[C@H](C(=O)O)[C@H]1CC(C)(C)CCC [A-545] | 16.6% | 100% | 100% | 78.6% | 86.9% | 67.9% | 23.3% | 95.8% | 88.9% | 82.2% | 100% | 100% | 89.7% | 95.9% | 75.2% | 87.1% | 100% | 100% | 100% | 100% | residual activity [21]: 98.4%; inhibition [22]: 28.4%; residual activity [23]: 100%; residual activity [24]: 100%; residual activity [25]: 100%; residual activity [26]: 84.6%; residual activity [27]: 98.4%; residual activity [28]: 99%; residual activity [29]: 100%; residual activity [30]: 100%; residual activity [31]: 100%; residual activity [32]: 93.2%; residual activity [33]: 100%; residual activity [34]: 100%; residual activity [35]: 92.5%; residual activity [36]: 93.8%; residual activity [37]: 65.4%; residual activity [38]: 90.2%; residual activity [39]: 83.2%; residual activity [40]: 100%
2 | CCCCN(CCCC)C(=O)CN1C[C@H](c2cc(OC)c3c(c2)OCO3)[C@@H](C(=O)O)[C@@H]1CC(C)(C)CCC [ABT-546] | 4.66% | 100% | 100% | 100% | 82% | 63.2% | -2.13% | 100% | 100% | 100% | 100% | 100% | 80.9% | 100% | 100% | 21.7% | 100% | 100% | 58.3% | 100% | residual activity [21]: 81.7%; inhibition [22]: 2.71%; residual activity [23]: 100%; residual activity [24]: 100%; residual activity [25]: 100%; residual activity [26]: 100%; residual activity [27]: 100%; residual activity [28]: 100%; residual activity [29]: 79.4%; residual activity [30]: 100%; residual activity [31]: 70.3%; residual activity [32]: 100%; residual activity [33]: 100%; residual activity [34]: 86.5%; residual activity [35]: 100%; residual activity [36]: 100%; residual activity [37]: 97%; residual activity [38]: 100%; residual activity [39]: 65.3%; residual activity [40]: 100%
